In patent US20050209157A1, “Short bioactive peptides and methods for their use” (priority 2001, published 2005):
≈ marks a conversion by molar mass, not a printed value. Where two headings read alike, the source gives them in different places. No end group written: not given here.

Key:
MCF7 = experiment: Anti-cancer assay, MTT, LD50; format: cell-based; conditions: MCF7 breast adenocarcinoma line, MTT, 24 hours with peptide
Excerpt: (§1) Numbers are LD50 values (μg/mL).

in vitro [1] = conditions: human, WI38 normal lung fibroblast cells
BMKC = experiment: Anti-cancer assay, MTT, LD50; format: cell-based; conditions: BMKC cloned melanoma line, 24 hours with peptide
Excerpt: as §1

H1299 = experiment: Anti-cancer assay, MTT, LD50; format: cell-based; conditions: 24 hours with peptide, lung large cell carcinoma
Excerpt: as §1

HeLaS3 = experiment: Anti-cancer assay, MTT, LD50; format: cell-based; conditions: 24 hours with peptide, cervical carcinoma
Excerpt: as §1

PC3 = experiment: Anti-cancer assay, MTT, LD50; format: cell-based; conditions: 24 hours with peptide, prostate adenocarcinoma
Excerpt: as §1

SW480 = experiment: Anti-cancer assay, MTT, LD50; format: cell-based; conditions: SW480 colon adenocarcinoma line, 24 hours with peptide
Excerpt: as §1

WI38 = conditions: MTT, 24 hours with peptide; for WI38 LD50: normal fibroblast line
in vitro [2] = format: cell-based, human; conditions: human, human red blood cells
Description: This hemolytic assay is based upon that presented in Journal of Peptide Research 53: 82-90 (1999). […] All procedures were performed according to safety protocols pertaining to the handling and disposal of human body fluids.
Red blood cells (RBCs) were washed three times with PBS (35 mM phosphate buffer 0.15 M NaCl, pH 7.0). RBCs suspended in PBS (0.4% (v/v); about 10 ml per 15 peptides) were prepared. Suspensions (100 μl) were aliquoted to each sample and control tube. Serially diluted peptide solutions (100 μl) were pipetted into the sample tubes. Negative control tubes contained 100 μl PBS; positive control tubes contained 100 μl 1% Triton-X100 detergent. All tubes were incubated for 1 hour at 37° C. The tubes were removed from the incubator and centrifuged at 1000 g for 5 minutes. Supernatant (100 μl) was pipetted to a 96-well polyvinyl chloride plate. The absorbance at 414 nm (A414) was measured, and used to calculate the percent hemolysis according to the following formula. [formula]

[3] = LD50 WI38, WI38 normal lung fibroblast line, MTT, 24 hours with peptide
[4] = pH 7, hemolytic assay, concentration at 50% hemolysis, 1 hour at 37° C., read-out: LD50
[5] = pH 7, Table 26, valine substitution, read-out: Hemolysis RBC LD50
[6] = WI38 LD50, MTT, 24 hours with peptide, normal fibroblast line

Compound: CC(C)C[C@H](NC(=O)[C@H](C)NC(=O)[C@H](CC(C)C)NC(=O)[C@H](C)NC(=O)[C@H](CC(C)C)NC(=O)[C@H](CCCCN)NC(=O)[C@H](C)NC(=O)[C@H](CC(C)C)NC(=O)[C@H](CCCCN)NC(=O)[C@H](CCCCN)NC(=O)[C@H](C)NC(=O)[C@H](CC(C)C)NC(=O)[C@H](CCCCN)NC(=O)[C@H](C)NC(=O)[C@H](CC(C)C)NC(=O)[C@H](CCCCN)NC(=O)[C@H](CCCCN)NC(=O)[C@H](C)NC(=O)[C@@H](N)C(C)C)C(N)=O [FLAK 25 AM V]
- LD50 MCF7 (MCF7): 130 µg/mL
- CC50 at 24 h (in vitro [1]; [3]): 110 µg/mL (≈ 55.3 µM)

Compound: CC[C@H](C)[C@H](NC(=O)CN)C(=O)NCC(=O)N[C@@H](C)C(=O)N[C@H](C(=O)N[C@@H](CC(C)C)C(=O)N[C@@H](CCCCN)C(=O)N[C@H](C(=O)N[C@@H](CC(C)C)C(=O)N[C@H](C(=O)N[C@H](C(=O)NCC(=O)N[C@@H](CC(C)C)C(=O)N1CCC[C@H]1C(=O)N[C@@H](C)C(=O)N[C@@H](CC(C)C)C(=O)N[C@H](C(=O)N[C@@H](CO)C(=O)N[C@@H](Cc1c[nH]c2ccccc12)C(=O)N[C@H](C(=O)N[C@@H](CCCCN)C(=O)N[C@@H](CCCNC(=N)N)C(=O)N[C@@H](CCCCN)C(=O)N[C@@H](CCCNC(=N)N)C(=O)N[C@@H](CCC(N)=O)C(=O)N[C@@H](CCC(N)=O)C(N)=O)[C@@H](C)CC)[C@@H](C)CC)[C@@H](C)O)[C@@H](C)O)C(C)C)C(C)C [MELITTIIN]
- LD50 BMKC (BMKC): 18 µg/mL
- H1299 LD50 (H1299): 25 µg/mL
- HeLaS3 LD50 (HeLaS3): 35 µg/mL
- LD50 MCF7 (MCF7): 9 µg/mL
- PC3 LD50 (PC3): 13 µg/mL
- LD50 SW480 (SW480): 23 µg/mL
- WI38 LD50 (WI38): 16 µg/mL
- CC50 at 24 h (in vitro [1]; [3]): 16 µg/mL (≈ 5.62 µM)

Compound: CC(C)C[C@H](NC(=O)[C@H](C)NC(=O)[C@H](CC(C)C)NC(=O)[C@H](C)NC(=O)[C@H](CC(C)C)NC(=O)[C@H](CCCCN)NC(=O)[C@H](C)NC(=O)[C@H](CC(C)C)NC(=O)[C@H](CCCCN)NC(=O)[C@H](CCCCN)NC(=O)[C@H](C)NC(=O)[C@H](CC(C)C)NC(=O)[C@H](CCCCN)NC(=O)[C@H](C)NC(=O)[C@H](CC(C)C)NC(=O)[C@H](CCCCN)NC(=O)[C@H](CCCCN)NC(=O)[C@H](C)NC(=O)[C@@H](N)Cc1ccccc1)C(N)=O [P36]
- LD50 BMKC (BMKC): 56 µg/mL
- H1299 LD50 (H1299): 57 µg/mL
- LD50 MCF7 (MCF7): 9 µg/mL
- PC3 LD50 (PC3): 19 µg/mL
- LD50 SW480 (SW480): 30 µg/mL
- HC50 at 1 h (in vitro [2]; [4]): 85 µg/mL
- WI38 LD50 (WI38): 19 µg/mL
- CC50 at 24 h (in vitro [1]; [3]): 19 µg/mL (≈ 9.32 µM)

Compound: CC(C)C[C@H](NC(=O)[C@H](C)NC(=O)[C@H](CC(C)C)NC(=O)[C@H](C)NC(=O)[C@H](CC(C)C)NC(=O)[C@H](CCCCN)NC(=O)[C@H](C)NC(=O)[C@H](CC(C)C)NC(=O)[C@H](CCCCN)NC(=O)[C@H](CCCCN)NC(=O)[C@H](C)NC(=O)[C@H](CC(C)C)NC(=O)[C@H](CCCCN)NC(=O)[C@H](C)NC(=O)[C@H](CC(C)C)NC(=O)[C@H](CCCCN)NC(=O)[C@H](CCCCN)NC(=O)[C@H](C)NC(=O)[C@@H](N)C(C)C)C(N)=O [compound 504]
- HC50 at 1 h (in vitro [2]; [5]): 70 µg/mL
- CC50 at 24 h (in vitro [1]; WI-38 LD50, Table 26, valine substitution): 110 µg/mL (≈ 55.3 µM)

Compound: FAKKFAKKFKKFAKKFAKFAFAF-NH2 [compound 301]
- HC50 at 1 h (in vitro [2]; [5]): 10 µg/mL

Compound: FAKKLAKKLKKLAKKLAK-NH2 [Shiva 10 (1-18) AM]
- H1299 LD50 (H1299): 71 µg/mL
- HeLaS3 LD50 (HeLaS3): 190 µg/mL
- PC3 LD50 (PC3): 81 µg/mL
- HC50 at 1 h (in vitro [2]; [4]): 900 µg/mL
- CC50 at 24 h (in vitro [1]; [6]): 101 µg/mL

Compound: FAKKLAKKLKKLAKKLAK-NH2 [Shiva 10(1-18)AM]
- LD50 BMKC (BMKC): 66 µg/mL
- LD50 MCF7 (MCF7): 45 µg/mL
- LD50 SW480 (SW480): 63 µg/mL
- CC50 at 24 h (in vitro [1]; [3]): 101 µg/mL

Compound: FAKKLAKKLKKLAKKLIGAVLKV-OH [SHIVA 11 [(1-16)ME(2-9]-COOH]
- LD50 BMKC (BMKC): 94 µg/mL
- H1299 LD50 (H1299): 54 µg/mL
- HeLaS3 LD50 (HeLaS3): 180 µg/mL
- LD50 MCF7 (MCF7): 95 µg/mL
- PC3 LD50 (PC3): 28 µg/mL
- LD50 SW480 (SW480): 120 µg/mL
- WI38 LD50 (WI38): 34 µg/mL
- CC50 at 24 h (in vitro [1]; [3]): 34 µg/mL

Compound: FALALKALKKA-NH2 [Flak 96H]
- LD50 BMKC (BMKC): > (> indicates greater than 1000)
- H1299 LD50 (H1299): > (> indicates greater than 1000)
- HeLaS3 LD50 (HeLaS3): > (> indicates greater than 1000)
- LD50 MCF7 (MCF7): > (> indicates greater than 1000)
- PC3 LD50 (PC3): > (> indicates greater than 1000)
- LD50 SW480 (SW480): > (> indicates greater than 1000)
- WI38 LD50 (WI38): > (> indicates greater than 1000)
- LD50 WI38 (WI38; WI38 normal lung fibroblast line): > (> indicates greater than 1000)

Compound: FALALKALKKLKKALKKAL-OH [P28]
- LD50 BMKC (BMKC): 93 µg/mL
- H1299 LD50 (H1299): 54 µg/mL
- HeLaS3 LD50 (HeLaS3): 80 µg/mL
- LD50 MCF7 (MCF7): 65 µg/mL
- PC3 LD50 (PC3): 16 µg/mL
- LD50 SW480 (SW480): 59 µg/mL
- HC50 at 1 h (in vitro [2]; [4]): 700 µg/mL
- WI38 LD50 (WI38): 101 µg/mL
- CC50 at 24 h (in vitro [1]; [3]): 101 µg/mL

Compound: FALLKALLKKAL-NH2 [Flak 961]
- H1299 LD50 (H1299): 240 µg/mL
- HeLaS3 LD50 (HeLaS3): 380 µg/mL
- PC3 LD50 (PC3): 120 µg/mL
- CC50 at 24 h (in vitro [1]; [6]): 270 µg/mL

Compound: FKVKFKVKVK-NH2 [P303, reference compound]
- LD50 BMKC (BMKC): 330 µg/mL
- H1299 LD50 (H1299): 345 µg/mL
- HeLaS3 LD50 (HeLaS3): > (> indicates greater than 1000)
- LD50 MCF7 (MCF7): 315 µg/mL
- PC3 LD50 (PC3): 530 µg/mL
- LD50 SW480 (SW480): 530 µg/mL
- HC50 at 1 h (in vitro [2]; [4]): 500 µg/mL
- WI38 LD50 (WI38): 355 µg/mL
- CC50 at 24 h (in vitro [1]; [3]): 355 µg/mL

Compound: GIGKFLHSAKKFGKAFVGGIMNS-NH2 [P16, reference compound]
- HC50 at 1 h (in vitro [2]; [4]): 550 µg/mL

Compound: KLAKKLAKLAKLAKAL-NH2 [P159, reference compound]
- LD50 BMKC (BMKC): 140 µg/mL
- H1299 LD50 (H1299): 74 µg/mL
- HeLaS3 LD50 (HeLaS3): 275 µg/mL
- LD50 MCF7 (MCF7): 61 µg/mL
- PC3 LD50 (PC3): 145 µg/mL
- LD50 SW480 (SW480): 140 µg/mL
- WI38 LD50 (WI38): 82 µg/mL
- CC50 at 24 h (in vitro [1]; [3]): 82 µg/mL

Compound: MPKWKVFKKIEKVGRNIRNGIVKAGPAIAVLGEAKALG-OH [SB37COOH]
- LD50 BMKC (BMKC): 120 µg/mL
- H1299 LD50 (H1299): 220 µg/mL
- HeLaS3 LD50 (HeLaS3): 150 µg/mL
- LD50 MCF7 (MCF7): 175 µg/mL
- LD50 SW480 (SW480): 82 µg/mL
- WI38 LD50 (WI38): 130 µg/mL
- CC50 at 24 h (in vitro [1]; [3]): 130 µg/mL

Compound: VAKALKALLKALKAL-NH2 [FLAK 17 CV]
- LD50 MCF7 (MCF7): 23 µg/mL
- CC50 at 24 h (in vitro [1]; [3]): 26 µg/mL

Compound: VAKALKALLKALKAL-NH2 [P501, VAKALKALLKALKAL-NH2]
- HC50 at 1 h (in vitro [2]; [4]): 15 µg/mL
